From patent US20030124068A1, “Oral preparation” (priority 2000, published 2003)

Key:
[1] = Dissolving capacity (HAP or FAP dissolving and CaF2 dissolving); assay type: physicochemical; details: 1M aqueous solution of the acid containing 23% sodium fluoride, pH 4 with sodium hydroxide; diluted to 30 wt. %, stirred 24 hours with HAP, FAP, CaF2 powder
Description: Dissolving capacity was measured in the following manner. Described specifically, the preparation is diluted to 30 wt. % with deionized water. The phosphorus and calcium concentrations in the solution were each determined in advance by using a calorimetric reagent and they were subtracted later. To 100 ml of the diluted solution were added hydroxyapatite (HAP), fluorapatite (FAP) and CAF2, each in the powdery form. The resulting mixture was stirred for 24 hours by a magnetic stirrer and the reaction mixture was filtered to remove the solid matter. The phosphorus and calcium concentrations in the solution were determined by a calorimetric reagent.
As the calorimetric reagents for calcium and phosphorus, Calcium Test Wako (for determination of calcium, product of Wako Pure Chemicals) and P Test Wako (for determination of inorganic phosphorus, product of Wako Pure Chemicals) were employed, respectively.

[2] = system: cow tooth (having a mirror polished surface); test: Whitening effect on immersed cow tooth, judged from photographs by a panel of 20 experts; details: 1M aqueous solution of the acid containing 23% sodium fluoride, pH 4; cow tooth immersed 24 hours
Description: Using acids different in pKa, 1M aqueous solutions containing 23% sodium fluoride were prepared, followed by adjustment to pH 4 with sodium hydroxide. After measuring their dissolving capacity, a cow tooth (having a mirror polished surface), which had been photographed in advance, was immersed in each solution for 24 hours. After the treatment, the tooth was taken out from the solution and photographed again. The color of the tooth before immersion was compared with that after immersion. The comparison was made as follows: A panel of 20 experts was asked to see the photographs of the tooth before and after treatment and to evaluate it as ◯ when the teeth was whitened after the treatment, while as × when no change in color was recognized. Upon evaluation, the tooth which was whitened but lost its gloss was evaluated as ×. The preparation evaluated as ◯ by at least a half of the experts was judged effective and the others were judged ineffective.
Toothpastes as shown in Table 3 were prepared in a conventional manner. Dissolving capacity of each of their 30% aqueous solutions was measured as in Example 1. Their whitening effect was measured also as in Example 1 (by immersing in the toothpaste for 24 hours).

[3] = 25° C.; acid added; cited from earlier work

Compound	Dissolving capacity [1]	Whitening effect [2]	pKa [3]
CC(=O)O [Acetic acid]	∘	∘	
O=C(O)CC(O)(CC(=O)O)C(=O)O [Citric acid]	∘	∘	2.9
Cl [Hydrochloric acid, reference compound]	∘		
CC(O)C(=O)O (centres unmarked) [Lactic acid]	∘	∘	
O=C(O)CC(O)C(=O)O (centres unmarked) [Malic acid]	∘	∘	
O=P(O)(O)O [Phosphoric acid, reference compound]	∘		
O=S(=O)(O)O [Sulfuric acid, reference compound]	∘		
O=C(O)C(O)C(O)C(=O)O (centres unmarked) [Tartaric acid]		∘	2.99
